Laboratory results published in publication PMC12081876, “Identification of PTGR2 inhibitors as a new therapeutic strategy for diabetes and obesity” (EMBO Molecular Medicine, 2025).
Values joined by “and” are separate entries in the source; they are usually repeats but may differ in a detail not shown here. Identical values can stand only once. One block for each compound: values may come before it.

Columns and labels:
[1] = tested on: mPPARγ-downstream genes; assay: RT-qPCR of Glut4 and other mPPARγ-downstream genes in differentiated 3T3-L1 adipocytes; format: cell-based, mouse
Procedure: The cell lines, which were tested for mycoplasma contamination and authenticated, were purchased from the Bioresource Collection and Research Center, Taiwan. All cells were cultured at 37 °C, 5% CO2 in a humidified incubator. HEK293T cells were maintained in DMEM (cat. no. SH30003.02, HyClone) supplemented with 10% fetal bovine serum (FBS) (cat. no. 04-001-1A, Biological Industries) and 1% antibiotic/antimycotic solution (cat. no. SV30079.01, HyClone). 3T3-L1 preadipocytes were maintained at ~70% confluence in DMEM with 10% calf serum (cat. no. 16170078, Gibco) and 1% antibiotic/antimycotic solution. For adipocyte differentiation, confluent 3T3-L1 cells (defined as day 0) were exposed to an induction medium containing 10% FBS, 1 μM dexamethasone (cat. no. D4902, Sigma-Aldrich), and 1 μg/ml insulin (Humulin R, Eli Lilly) in DMEM with or without 0.5 mM isobutyl-methylxanthine (cat. no. sc-201188A, Santa Cruz Biotechnology) as indicated. After two days, the medium was replaced with DMEM containing 10% FBS and 1 μg/ml insulin and was replenished every two days until assay.
A total of 1 × 10^5 3T3-L1 preadipocytes were seeded in 6-well plates and differentiated for six days. The 3T3-L1 adipocytes were then harvested in 1 ml of REzol C&T (cat. no. PT-KP200CT, Protech), and total RNA was extracted according to the manufacturer’s instructions with slight modifications. Briefly, 200 μl of chloroform were added to 1 ml of sample in REzol, and samples were vigorously mixed by shaking for 30 s, followed by incubation at room temperature for 5 min. Then, samples were centrifuged at 12,000 × g for 15 min at 4 °C, and 400 μl of the upper aqueous phase were transferred to a new 1.5-ml tube. An equal volume of isopropanol was added. Samples were inverted several times for mixing and then centrifuged at 12,000 × g for 10 min at 4 °C. The RNA precipitate, which formed a pellet at the bottom of the 1.5-ml tube, was washed three times with 75% ethanol and air-dried for 15 min. Pellets were dissolved in RNase-free water. The concentration of RNA was measured using Nanodrop. cDNA was synthesized using a reverse transcription kit (cat. no. K1622, Thermo Scientific) using the oligo(dT)18 primers. RT-qPCR was performed in a 10-μl reaction with 50 ng cDNA and 0.2 μM primer using SYBR green reagent (cat. no. 11203ES08, YEASEN). Mouse peptidylprolyl isomerase A (Ppia) mRNA was used as the internal control. RT-qPCR reactions were performed using ABI 7900HT FAST (Applied Biosystems) and Sequence Detection Systems (SDS v2.3, Applied Biosystems). All qPCR reactions were run in duplicates. The primers used are listed in Appendix Table S3.

[2] = biological target: T1, wild-type mPPARγ (Mus musculus, UniProt P37238); assay: PPRE reporter assay in HEK293T cells, wild-type mPPARγ; format: cell-based, murine; set-up: key to PPRE reporter activity, Fig 1M replicates: luciferase activity normalized to TK reporter signal; details: for PPRE reporter activity, Fig 1M replicates: PPARg WT
T1 construct: host or cells: HEK293T
T1 sequence (P37238 1-505): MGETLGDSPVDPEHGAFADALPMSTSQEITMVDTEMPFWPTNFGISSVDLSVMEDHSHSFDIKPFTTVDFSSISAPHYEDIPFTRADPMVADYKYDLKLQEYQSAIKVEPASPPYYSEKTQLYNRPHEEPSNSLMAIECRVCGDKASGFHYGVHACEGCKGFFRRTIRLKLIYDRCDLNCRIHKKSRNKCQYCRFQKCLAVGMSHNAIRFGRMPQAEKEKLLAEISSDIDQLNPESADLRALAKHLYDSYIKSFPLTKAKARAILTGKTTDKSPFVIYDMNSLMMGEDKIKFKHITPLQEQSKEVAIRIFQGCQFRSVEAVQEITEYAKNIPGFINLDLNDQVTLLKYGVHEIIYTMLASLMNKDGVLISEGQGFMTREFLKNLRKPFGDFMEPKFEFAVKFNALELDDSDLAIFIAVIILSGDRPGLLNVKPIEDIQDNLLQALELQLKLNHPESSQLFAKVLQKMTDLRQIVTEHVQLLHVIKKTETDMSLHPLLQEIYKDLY
Procedure: For PPRE reporter assay, HEK293T cells were seeded in 24-well plates at 1 × 10^5 cells/well. […] The luciferase activity was measured by Luc-Pair™ Duo-Luciferase HS Assay Kit (cat. no. LF600, Promega, USA) and normalized to the TK reporter signal.

[3] = tested on: HFHSD-fed obese C57BL6/J mice; assay: Adipocyte size and number in perigonadal fat (H&E stain); format: in vivo, mouse; details: vs vehicle
Source text: Tissues were fixed in 4% paraformaldehyde and then embedded in paraffin before sectioning and staining. The stained sections were scanned and analyzed using a MIRAX viewer (http://www.zeiss.de/mirax) and Image J software (http://rsbwed.nih.gov/ij/).

PPRE reporter activity, Fig 1M replicates ([2]; 1314dh-15kPGE2 5uM): 0.8192 and 0.7939 and 0.9277 | PPRE reporter activity, Fig 1M replicates ([2]; 1314dh-15kPGE2 10uM): 1.0416 and 0.7874 and 1.0502
SMILES: CCCCCC(=O)CC[C@H]1[C@H](O)CC(=O)[C@@H]1C/C=C\CCCC(=O)O [13,14-dihydro-15-keto-PGE2]
Adipoq RT-qPCR, Fig 1I replicates ([1]; 13,14dh-15kPGE2 10μM): 1.319 and 1.153 and 1.286 | Cepba RT-qPCR, Fig 1H replicates ([1]; 13,14dh-15kPGE2 10μM): 1.374 and 0.7769 and 0.716 | Acs RT-qPCR, Fig 1G replicates ([1]; 13,14dh-15kPGE2 10): 1.301 and 1.081 and 1.404 | Cd36 RT-qPCR, Fig 1F replicates ([1]; 13,14dh-15kPGE2 10): 1.404 and 1.223 and 0.9692 | Glut4 RT-qPCR, Fig 1C replicates ([1]; 13,14dh-15kPGE2 10): 1.898 and 2.106 and 1.673 | Irs2 RT-qPCR, Fig 1D replicates ([1]; 13,14dh-15kPGE2 10): 0.9456 and 0.6593 and 0.5678 | Sorbs1 RT-qPCR, Fig 1E replicates ([1]; 13,14dh-15kPGE2 10): 1.1258 and 0.882 and 0.8066

PPRE reporter activity, Fig 1M replicates ([2]; 15kPGE2 1uM): 0.8257 and 0.8644 and 0.9986 | PPRE reporter activity, Fig 1M replicates ([2]; 15kPGE2 5uM): 1.6663 and 1.771 and 1.8768 | PPRE reporter activity, Fig 1M replicates ([2]; 15kPGE2 10uM): 2.316 and 1.9846 and 1.9282
SMILES: CCCCCC(=O)/C=C/[C@H]1[C@H](O)CC(=O)[C@@H]1C/C=C\CCCC(=O)O [15-keto-PGE2, 15-keto-prostaglandin E2]
Expression of Glut4 and other PPARγ-downstream genes (Irs2, Sorbs1, Cd36, Acs, Cebpa, Adipq) ([1]; 3T3-L1 adipocytes): significantly increased | Adipoq RT-qPCR, Fig 1I replicates ([1]; 15kPGE2 1μM): 1.0415 and 1.163 and 1.453 | Cepba RT-qPCR, Fig 1H replicates ([1]; 15kPGE2 1μM): 1.584 and 1.855 and 1.4452 | Adipoq RT-qPCR, Fig 1I replicates ([1]; 15kPGE2 5μM): 2.354 and 2.11 and 2.081 | Cepba RT-qPCR, Fig 1H replicates ([1]; 15kPGE2 5μM): 1.743 and 1.998 and 2.055 | Adipoq RT-qPCR, Fig 1I replicates ([1]; 15kPGE2 10μM): 2.022 and 2.345 and 2.444 | Cepba RT-qPCR, Fig 1H replicates ([1]; 15kPGE2 10μM): 2.675 and 2.195 and 2.109 | Acs RT-qPCR, Fig 1G replicates ([1]; 15kPGE2 1): 1.074 and 1.165 and 0.8587 | Cd36 RT-qPCR, Fig 1F replicates ([1]; 15kPGE2 1): 1.042 and 1.096 and 0.9399 | Glut4 RT-qPCR, Fig 1C replicates ([1]; 15kPGE2 1): 1.309 and 1.263 and 1.257 | Irs2 RT-qPCR, Fig 1D replicates ([1]; 15kPGE2 1): 1.164 and 1.43 and 1.116 | Sorbs1 RT-qPCR, Fig 1E replicates ([1]; 15kPGE2 1): 1.214 and 1.379 and 1.0658 | Acs RT-qPCR, Fig 1G replicates ([1]; 15kPGE2 5): 1.251 and 1.575 and 1.53 | Cd36 RT-qPCR, Fig 1F replicates ([1]; 15kPGE2 5): 1.448 and 1.619 and 1.287 | Glut4 RT-qPCR, Fig 1C replicates ([1]; 15kPGE2 5): 2.797 and 2.997 and 3.11 | Irs2 RT-qPCR, Fig 1D replicates ([1]; 15kPGE2 5): 1.3621 and 1.275 and 1.386 | Sorbs1 RT-qPCR, Fig 1E replicates ([1]; 15kPGE2 5): 1.2593 and 1.694 and 1.702 | Acs RT-qPCR, Fig 1G replicates ([1]; 15kPGE2 10): 2.4974 and 2.133 and 2.44 | Cd36 RT-qPCR, Fig 1F replicates ([1]; 15kPGE2 10): 2.006 and 2.309 and 1.915 | Glut4 RT-qPCR, Fig 1C replicates ([1]; 15kPGE2 10): 7.333 and 8.598 and 7.543 | Irs2 RT-qPCR, Fig 1D replicates ([1]; 15kPGE2 10): 2.078 and 2.094 and 1.997 | Sorbs1 RT-qPCR, Fig 1E replicates ([1]; 15kPGE2 10): 2.379 and 1.942 and 1.911 | PPRE reporter activity, wild-type mPPARγ ([2]; HEK293T): dose-dependently increases the reporter activity of PPARγ | adipocyte size ([3]; 40 mg/kg/day ip): smaller | number of adipocytes ([3]; 40 mg/kg/day ip): no difference

SMILES: Cc1[nH]c2nc(C(C)N3CCN(c4ccccc4)CC3)nn2c(=O)c1Cc1ccc(F)cc1 (stereo not drawn) [BPRPT0245]
adipocyte number ([3]; 100 mg/kg/day oral): not changed | adipocyte size ([3]; 100 mg/kg/day oral): reduced
